How the values were obtained:
[1] = target: T1, Caspase-1 (Homo sapiens, UniProt P29466); set-up: species or system Escherichia coli;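 further: Caspase-1 enzyme inhibition assay with a peptide substrate; in other assays of this panel Not Active means under 50% inhibition at 10 µM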
T1 sequence (P29466 whole entry): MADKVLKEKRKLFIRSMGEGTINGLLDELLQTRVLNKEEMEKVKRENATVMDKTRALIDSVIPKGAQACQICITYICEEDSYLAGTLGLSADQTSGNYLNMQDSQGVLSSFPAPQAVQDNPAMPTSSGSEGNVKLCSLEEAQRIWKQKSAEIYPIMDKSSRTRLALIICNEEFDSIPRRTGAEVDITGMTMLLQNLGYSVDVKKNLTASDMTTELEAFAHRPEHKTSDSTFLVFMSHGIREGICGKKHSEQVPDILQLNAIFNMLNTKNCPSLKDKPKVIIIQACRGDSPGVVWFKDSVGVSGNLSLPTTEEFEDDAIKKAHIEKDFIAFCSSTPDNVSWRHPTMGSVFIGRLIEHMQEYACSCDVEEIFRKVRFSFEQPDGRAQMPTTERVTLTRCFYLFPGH

[2] = target: T2, Thromboxane-A synthase (Homo sapiens, UniProt P24557); test: biochemical; type: tissue-based, Platelet; settings: platelet;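 further: enzyme inhibition assay with PGH2 supplied as substrate; in other assays of this panel Not Active means under 50% inhibition at 10 µM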
T2 sequence (P24557 whole entry): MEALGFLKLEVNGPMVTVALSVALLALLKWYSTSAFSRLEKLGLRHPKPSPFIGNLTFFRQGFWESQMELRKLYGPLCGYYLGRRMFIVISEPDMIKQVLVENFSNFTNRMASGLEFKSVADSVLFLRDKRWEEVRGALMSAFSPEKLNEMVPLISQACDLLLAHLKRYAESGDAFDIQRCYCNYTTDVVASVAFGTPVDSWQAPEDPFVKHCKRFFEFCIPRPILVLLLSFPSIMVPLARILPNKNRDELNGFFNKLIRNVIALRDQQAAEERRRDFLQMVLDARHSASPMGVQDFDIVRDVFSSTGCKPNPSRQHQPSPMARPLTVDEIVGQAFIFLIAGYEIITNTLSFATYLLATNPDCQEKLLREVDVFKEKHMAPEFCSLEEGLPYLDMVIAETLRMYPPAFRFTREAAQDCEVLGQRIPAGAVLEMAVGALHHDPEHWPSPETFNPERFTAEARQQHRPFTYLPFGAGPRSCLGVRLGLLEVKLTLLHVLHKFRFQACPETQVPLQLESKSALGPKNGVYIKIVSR

[3] = target: T3, Muscarinic acetylcholine receptor M5 (Homo sapiens, UniProt P08912); type: cell membranes, CHO-K1, Membrane; settings: cho-k1; further: in other assays of this panel Not Active means under 50% inhibition at 10 µM
T3 sequence (P08912 whole entry): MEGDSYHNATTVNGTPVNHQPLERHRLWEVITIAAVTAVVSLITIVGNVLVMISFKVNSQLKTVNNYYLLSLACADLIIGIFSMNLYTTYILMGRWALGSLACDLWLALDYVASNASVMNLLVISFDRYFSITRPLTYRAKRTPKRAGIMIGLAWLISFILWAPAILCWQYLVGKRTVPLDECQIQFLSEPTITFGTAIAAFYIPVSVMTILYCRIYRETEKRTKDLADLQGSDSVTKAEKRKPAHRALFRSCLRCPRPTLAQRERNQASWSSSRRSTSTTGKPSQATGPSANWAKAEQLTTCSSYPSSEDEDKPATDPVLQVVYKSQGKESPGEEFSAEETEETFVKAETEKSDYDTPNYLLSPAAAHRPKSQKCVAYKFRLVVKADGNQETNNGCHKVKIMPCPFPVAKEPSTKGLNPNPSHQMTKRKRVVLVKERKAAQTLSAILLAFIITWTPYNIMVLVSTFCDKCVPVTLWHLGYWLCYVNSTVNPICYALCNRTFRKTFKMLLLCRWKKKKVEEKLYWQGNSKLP

[4] = target: T4, Alpha-1A adrenergic receptor (Rattus norvegicus, UniProt P43140); test: DRUGMATRIX: Alpha-1A adrenergic receptor radioligand binding (ligand: prazosin); type: cell membranes, Wistar, Submaxillary gland, Membrane; settings: Not Active = under 50% inhibition at 10 µM
T4 sequence (P43140 whole entry): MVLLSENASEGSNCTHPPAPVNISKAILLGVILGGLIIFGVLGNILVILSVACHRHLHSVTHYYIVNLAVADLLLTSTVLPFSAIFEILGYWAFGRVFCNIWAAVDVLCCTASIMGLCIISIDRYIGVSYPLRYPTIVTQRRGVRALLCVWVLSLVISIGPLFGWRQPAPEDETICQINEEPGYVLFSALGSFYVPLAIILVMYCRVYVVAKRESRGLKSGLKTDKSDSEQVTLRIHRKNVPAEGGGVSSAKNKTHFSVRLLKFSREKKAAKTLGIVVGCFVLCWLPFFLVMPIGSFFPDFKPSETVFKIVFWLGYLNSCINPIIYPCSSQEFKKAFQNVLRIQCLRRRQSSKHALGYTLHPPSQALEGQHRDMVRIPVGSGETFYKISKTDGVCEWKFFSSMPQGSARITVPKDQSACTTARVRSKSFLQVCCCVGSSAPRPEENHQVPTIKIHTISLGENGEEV

[5] = target: T5, Vasoactive intestinal polypeptide receptor 1 (Homo sapiens, UniProt P32241); type: cell membranes, Membrane; settings: ht-29; further: in other assays of this panel Not Active means under 50% inhibition at 10 µM
T5 sequence (P32241 whole entry): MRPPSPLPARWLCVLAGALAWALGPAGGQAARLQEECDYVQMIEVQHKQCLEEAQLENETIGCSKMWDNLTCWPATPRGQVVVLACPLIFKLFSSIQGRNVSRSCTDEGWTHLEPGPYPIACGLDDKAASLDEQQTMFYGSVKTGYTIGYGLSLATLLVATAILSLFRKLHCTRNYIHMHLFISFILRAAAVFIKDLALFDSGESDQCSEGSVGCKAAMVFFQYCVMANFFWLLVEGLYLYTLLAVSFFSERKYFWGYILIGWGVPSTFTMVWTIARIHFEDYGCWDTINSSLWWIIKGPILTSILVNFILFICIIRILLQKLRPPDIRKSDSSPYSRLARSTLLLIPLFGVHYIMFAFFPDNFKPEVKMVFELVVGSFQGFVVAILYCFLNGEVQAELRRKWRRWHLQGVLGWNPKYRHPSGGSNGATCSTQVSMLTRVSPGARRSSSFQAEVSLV

OC[C@@H](O)[C@@H](O)[C@H](O)[C@H](O)CO [MANNITOL]
Not Active: IC50 [1] | IC50 [2] | IC50 [3] | IC50 [4] | IC50 [5]

CC(Cl)(Cl)Cl [TRICHLOROETHANE]
Not Active: IC50 [1] | IC50 [2] | IC50 [3] | IC50 [4] | IC50 [5]

LEAD(IV) ACETATE
Not Active: IC50 [1] | Ki [1] | IC50 [2] | Ki [2] | IC50 [3] | Ki [3] | IC50 [4] | Ki [4] | IC50 [5] | Ki [5]

O=C(c1ccccc1)c1ccc2n1CCC2C(=O)O (stereo not given) [KETOROLAC]
Not Active: IC50 [1] | IC50 [2] | IC50 [3] | IC50 [4] | IC50 [5]
